# From ChEMBL document CHEMBL6109099, “Design, synthesis and biological evaluation of novel hydroxamic acid-derived histone deacetylase inhibitors bearing a 2-oxoindoline scaffold as potential antitumor agents” (Bioorg Med Chem, 2025)
# pIC50: −log10 of the molar value. Structures can show the parent of a compound that is named as a salt. Active and inactive are the calls of the source. The calls are words filed in the database; no cut-off is given here.
# Key:
# Histone deacetylase = test: Inhibition of HDAC in human HeLa cells nuclear extract; type: subcellular, Nucleus
# SW-620 [1] = test: Cytotoxicity against human SW620 cells assessed as reduction in cell viability by SRB assay; type: functional, cell-based
# [2] = Cytotoxicity against human MRC5 cells assessed as reduction in cell viability by SRB assay
# HCT-116 = test: Cytotoxicity against human HCT-116 cells assessed as reduction in cell viability by SRB assay; type: functional, cell-based
# SW-620 [3] = test: Induction of morphological changes in human SW620 cells assessed as cell shrinkage at 5 uM measured after 24 hrs; type: functional, cell-based
# SW-620 [4] = test: Induction of morphological changes in human SW620 cells assessed as cell rounding at 5 uM measured after 24 hrs; type: functional, cell-based
# SW-620 [5] = test: Induction of morphological changes in human SW620 cells assessed as cytoplasmic condensation at 5 uM measured after 24 hrs; type: functional, cell-based
# SW-620 [6] = test: Cell cycle arrest in human SW620 cells assessed as accumulation of cells at G2/M-phase at 5 uM measured after 24 hrs by propidium iodide staining based flow cytometry (reference value: 27.55 to 31.23%); type: functional
# SW-620 [7] = test: Induction of morphological changes in human SW620 cells assessed as altered membrane fluidity at 5 uM measured after 24 hrs; type: functional, cell-based
# SW-620 [8] = test: Induction of apoptosis in human SW620 cells assessed as late apoptotic cells at 5 uM measured after 24 hrs by Annexin V-APC/propidium iodide staining based flow cytometry (reference value: 3.47 to 4.55%); type: functional
# SW-620 [9] = test: Induction of apoptosis in human SW620 cells assessed as necrotic cells at 5 uM measured after 24 hrs by Annexin V-APC/propidium iodide staining based flow cytometry (reference value: 0.2 to 0.42%); type: functional
# SW-620 [10] = test: Induction of morphological changes in human SW620 cells assessed as altered membrane permeability at 5 uM measured after 24 hrs; type: functional, cell-based
# SW-620 [11] = test: Induction of morphological changes in human SW620 cells assessed as cell clumping at 5 uM measured after 24 hrs; type: functional, cell-based
# SW-620 [12] = test: Induction of morphological changes in human SW620 cells assessed as reduction in cell size at 5 uM measured after 24 hrs; type: functional, cell-based
# SW-620 [13] = test: Induction of morphological changes in human SW620 cells assessed as increase in granularity at 5 uM measured after 24 hrs; type: functional, cell-based
# SW-620 [14] = test: Potency index, ratio of SAHA IC50 to test compound IC50 for cytotoxicity against human SW620 cells; type: functional
# SW-620 [15] = test: Cell cycle arrest in human SW620 cells assessed as accumulation of cells at S-phase at 5 uM measured after 24 hrs by propidium iodide staining based flow cytometry (reference value: 16.38 to 16.91%); type: functional
# SW-620 [16] = test: Induction of morphological changes in human SW620 cells assessed as water extrusion at 5 uM measured after 24 hrs; type: functional, cell-based
# SW-620 [17] = test: Cell cycle arrest in human SW620 cells assessed as accumulation of cells at G0/G1-phase at 5 uM measured after 24 hrs by propidium iodide staining based flow cytometry (reference value: 52.39 to 55.88%); type: functional
# SW-620 [18] = test: Induction of morphological changes in human SW620 cells assessed as tighter organelle packing at 5 uM measured after 24 hrs; type: functional, cell-based
# SW-620 [19] = test: Induction of apoptosis in human SW620 cells assessed as early apoptotic cells at 5 uM measured after 24 hrs by Annexin V-APC/propidium iodide staining based flow cytometry (reference value: 7.13 to 9.13%); type: functional
SMILES,IC50 (Histone deacetylase) [µM],pIC50 (SW-620 [1]),pIC50 [2],pIC50 (HCT-116),further results
COc1ccc2c(c1)CC(=O)N2Cc1ccc(C(=O)NO)cc1,2.735,5.05,4.38,5.44,
O=C(/C=C/c1ccc(CN2C(=O)Cc3cc(Cl)ccc32)cc1)NO,0.737,5.15,4.18,5.44,
O=C(NO)c1ccc(CN2C(=O)Cc3cc(F)ccc32)cc1,0.477,4.97,< 4.00,5.12,
O=C(CCCCCCN1C(=O)Cc2cc(Br)ccc21)NO,< 0.001,4.91,4.52,5.00,
COc1ccc2c(c1)CC(=O)N2CCCCCCC(=O)NO,0.025,5.22,4.61,5.19,
O=C(/C=C/c1ccc(CN2C(=O)Cc3cc(Br)ccc32)cc1)NO,0.698,5.28,4.31,5.50,
O=C(/C=C/c1ccc(CN2C(=O)Cc3cc(F)ccc32)cc1)NO,5.012,4.85,< 4.00,5.13,
O=C(NO)c1ccc(CN2C(=O)Cc3cc(Cl)ccc32)cc1,0.491,5.20,< 4.00,5.46,
COc1ccc2c(c1)CC(=O)N2Cc1ccc(/C=C/C(=O)NO)cc1,1.043,4.99,< 4.00,5.50,
O=C(CCCCCCN1C(=O)Cc2cc(F)ccc21)NO,0.047,5.24,4.24,5.40,
O=C(CCCCCCN1C(=O)Cc2ccccc21)NO,0.015,5.74,4.75,5.77,Activity (SW-620 [3]): Active; Activity (SW-620 [4]): Active; Activity (SW-620 [5]): Active; Activity (SW-620 [6]): 47.54%; Activity (SW-620 [7]): Active; Activity (SW-620 [8]): 28.9%; Activity (SW-620 [9]): 1.85%; Activity (SW-620 [10]): Active; Activity (SW-620 [11]): Active; Activity (SW-620 [12]): Active; Activity (SW-620 [13]): Active; Ratio IC50 (SW-620 [14]): ~2.5; Activity (SW-620 [15]): 15.26%; Activity (SW-620 [16]): Active; Activity (SW-620 [17]): 32.88%; Activity (SW-620 [18]): Active; Activity (SW-620 [19]): 23.4%
O=C(NO)c1ccc(CN2C(=O)Cc3ccccc32)cc1,0.477,5.09,< 4.00,5.14,
O=C(CCCCCCN1C(=O)Cc2cc(Cl)ccc21)NO,0.007,5.33,4.64,5.25,
O=C(NO)c1ccc(CN2C(=O)Cc3cc(Br)ccc32)cc1,2.739,5.26,4.67,5.56,
O=C(CCCCCCC(=O)Nc1ccccc1)NO [VORINOSTAT],,,,,Activity (SW-620 [3]): Active; Activity (SW-620 [4]): Active; Activity (SW-620 [5]): Active; Activity (SW-620 [6]): 37.58%; Activity (SW-620 [7]): Active; Activity (SW-620 [8]): 24.3%; Activity (SW-620 [9]): 1.53%; Activity (SW-620 [10]): Active; Activity (SW-620 [11]): Active; Activity (SW-620 [12]): Active; Activity (SW-620 [13]): Active; Activity (SW-620 [15]): 15.16%; Activity (SW-620 [16]): Active; Activity (SW-620 [17]): 41.58%; Activity (SW-620 [18]): Active; Activity (SW-620 [19]): 26.3%
COc1cccc2c1C(=O)c1c(O)c3c(c(O)c1C2=O)C[C@@](O)(C(=O)CO)C[C@@H]3O[C@H]1C[C@H](N)[C@H](O)[C@H](C)O1 [DOXORUBICIN HYDROCHLORIDE],,6.23,5.41,6.72,
O=C(/C=C/c1ccc(CN2C(=O)Cc3ccccc32)cc1)NO,2.316,5.13,< 4.00,5.24,
